Active and inactive are the calls of the source. The calls are words filed in the database; no cut-off is given here.
Tests used:
[1] = target: 5-hydroxytryptamine receptor 7 (Homo sapiens, UniProt P34969); experiment: Binding affinity to 5HT7 receptor
[2] = target: 5-hydroxytryptamine receptor 4 (Homo sapiens, UniProt Q13639); experiment: Binding affinity to 5HT4 receptor
[3] = Cmax in fasted Wistar rat at 10 mg/kg, po; assay type: ADME, organism-based; parameters: dose 10 mg/kg, route oral; settings: in vivo
[4] = Ratio of drug uptake in brain to plasma in Wistar rat at 10 mg/kg, po after 1 hr; assay type: ADME, organism-based; parameters: dose 10 mg/kg, route oral; settings: read-out: BPR
[5] = Drug metabolism in Wistar rat liver microsomes at 2.5 uM at 30 mins by LC-MS/MS analysis; assay type: ADME, Microsome; settings: read-out: Drug metabolism
[6] = target: 5-hydroxytryptamine receptor 6 (Homo sapiens) (UniProt P50406); experiment: Antagonist activity at human recombinant 5HT6 receptor expressed in CHO cells assessed as inhibition of 5HT-induced luciferase activity after 4 hrs by reporter gene assay relative to control; assay type: functional, cell-based
Chain of 5-hydroxytryptamine receptor 6 (Homo sapiens) (P50406 whole entry): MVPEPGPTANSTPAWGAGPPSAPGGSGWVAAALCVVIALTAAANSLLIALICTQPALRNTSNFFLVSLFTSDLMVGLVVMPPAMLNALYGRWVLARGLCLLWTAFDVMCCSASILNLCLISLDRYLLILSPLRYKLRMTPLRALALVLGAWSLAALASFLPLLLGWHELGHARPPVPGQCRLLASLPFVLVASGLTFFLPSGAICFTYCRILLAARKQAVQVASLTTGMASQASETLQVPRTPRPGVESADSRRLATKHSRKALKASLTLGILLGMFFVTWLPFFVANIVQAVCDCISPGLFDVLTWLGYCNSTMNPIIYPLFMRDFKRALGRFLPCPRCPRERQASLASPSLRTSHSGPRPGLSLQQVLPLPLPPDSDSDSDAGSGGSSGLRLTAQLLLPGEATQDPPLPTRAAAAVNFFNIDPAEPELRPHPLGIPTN

[7] = target: Sodium-dependent dopamine transporter (Homo sapiens, UniProt Q01959); experiment: Binding affinity to dopamine transporter
Cytochrome P450 3A4 = Cytochrome P450 3A4 (Homo sapiens, UniProt P08684); experiment: Inhibition of CYP3A4 in human liver microsomes using midazolam as substrate after 5 mins by LC-MS/MS analysis in presence of NADPH
[8] = AUC (0 to 24 hrs) in Wistar rat at 10 mg/kg, iv; assay type: ADME, organism-based; parameters: time < 24 hr, dose 10 mg/kg, route intravenous; settings: plasma
[9] = target: T1, 5-hydroxytryptamine receptor 2C (Homo sapiens, UniProt P28335); experiment: Binding affinity to 5HT2C receptor
T1 sequence (P28335 whole entry): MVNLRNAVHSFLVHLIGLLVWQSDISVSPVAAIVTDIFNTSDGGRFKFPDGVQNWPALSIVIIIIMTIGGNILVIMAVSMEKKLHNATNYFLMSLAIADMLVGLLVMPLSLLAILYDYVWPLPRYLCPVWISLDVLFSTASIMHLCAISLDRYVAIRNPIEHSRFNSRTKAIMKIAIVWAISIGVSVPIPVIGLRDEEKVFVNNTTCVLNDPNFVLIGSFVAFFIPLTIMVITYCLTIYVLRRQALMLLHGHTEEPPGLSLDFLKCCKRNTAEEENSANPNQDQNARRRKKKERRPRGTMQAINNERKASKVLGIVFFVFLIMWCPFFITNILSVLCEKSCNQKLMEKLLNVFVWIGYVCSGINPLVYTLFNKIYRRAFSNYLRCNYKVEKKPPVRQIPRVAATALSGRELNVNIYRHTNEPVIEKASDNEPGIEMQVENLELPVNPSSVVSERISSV

[10] = target: Sodium-dependent serotonin transporter (Homo sapiens, UniProt P31645); experiment: Binding affinity to SERT
Chain of Sodium-dependent serotonin transporter (P31645 whole entry): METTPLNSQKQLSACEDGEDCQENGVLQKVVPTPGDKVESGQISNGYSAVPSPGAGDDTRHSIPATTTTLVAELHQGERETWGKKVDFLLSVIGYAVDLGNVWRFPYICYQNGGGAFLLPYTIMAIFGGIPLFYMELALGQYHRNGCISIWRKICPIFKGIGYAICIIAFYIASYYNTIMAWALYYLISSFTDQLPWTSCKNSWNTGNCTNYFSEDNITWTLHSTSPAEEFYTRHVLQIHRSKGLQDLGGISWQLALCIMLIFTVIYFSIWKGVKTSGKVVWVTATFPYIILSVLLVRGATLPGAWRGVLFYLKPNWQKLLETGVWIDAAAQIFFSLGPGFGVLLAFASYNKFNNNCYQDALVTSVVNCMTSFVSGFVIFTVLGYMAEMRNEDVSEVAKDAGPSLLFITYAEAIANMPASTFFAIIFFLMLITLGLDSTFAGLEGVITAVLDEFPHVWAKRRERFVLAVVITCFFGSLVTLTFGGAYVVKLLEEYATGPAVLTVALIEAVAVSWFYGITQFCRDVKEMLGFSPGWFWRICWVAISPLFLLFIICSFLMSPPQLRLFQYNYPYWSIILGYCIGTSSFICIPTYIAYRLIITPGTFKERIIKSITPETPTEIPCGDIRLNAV

[11] = Half life in Wistar rat at 10 mg/kg, iv; assay type: ADME, organism-based; parameters: dose 10 mg/kg, route intravenous; settings: in vivo
[12] = AUC (0 to 24 hrs) in fasted Wistar rat at 10 mg/kg, po; assay type: ADME, organism-based; parameters: time < 24 hr, dose 10 mg/kg, route oral; settings: plasma
Rattus norvegicus [13] = experiment: Toxicity in po dosed Wistar rat assessed as phospholipidosis in multiple organs administered as repeated dose for 7 days; assay type: organism-based; settings: in vivo, 168 h
[14] = Tmax in fasted Wistar rat at 10 mg/kg, po; assay type: ADME, organism-based; parameters: dose 10 mg/kg, route oral; settings: in vivo
Rattus norvegicus [15] = experiment: Procognitive activity in Wistar rat assessed as reversal of time delay induced-memory deficit at 1 mg/kg, po by object recognition test; assay type: functional, organism-based; parameters: dose 1 mg/kg
Histamine H1 receptor = Histamine H1 receptor (Homo sapiens, UniProt P35367); experiment: Binding affinity to histamine H1 receptor
Chain of Histamine H1 receptor (P35367 whole entry): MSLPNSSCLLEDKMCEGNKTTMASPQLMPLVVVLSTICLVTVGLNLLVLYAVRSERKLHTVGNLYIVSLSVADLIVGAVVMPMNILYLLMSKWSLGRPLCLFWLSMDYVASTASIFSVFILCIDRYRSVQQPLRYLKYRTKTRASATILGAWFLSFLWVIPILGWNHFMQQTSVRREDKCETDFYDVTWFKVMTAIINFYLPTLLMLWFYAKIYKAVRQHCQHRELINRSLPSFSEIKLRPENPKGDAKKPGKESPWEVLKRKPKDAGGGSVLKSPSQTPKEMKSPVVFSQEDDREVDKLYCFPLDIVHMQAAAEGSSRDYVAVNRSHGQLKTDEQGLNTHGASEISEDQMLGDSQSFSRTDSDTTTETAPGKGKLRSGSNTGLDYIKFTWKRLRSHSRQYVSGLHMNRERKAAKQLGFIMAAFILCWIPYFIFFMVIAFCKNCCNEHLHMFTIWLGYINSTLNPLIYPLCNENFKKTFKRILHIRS

[16] = target: T2, 5-hydroxytryptamine receptor 3A (Homo sapiens, UniProt P46098); experiment: Binding affinity to 5HT3 receptor
T2 sequence (P46098 whole entry): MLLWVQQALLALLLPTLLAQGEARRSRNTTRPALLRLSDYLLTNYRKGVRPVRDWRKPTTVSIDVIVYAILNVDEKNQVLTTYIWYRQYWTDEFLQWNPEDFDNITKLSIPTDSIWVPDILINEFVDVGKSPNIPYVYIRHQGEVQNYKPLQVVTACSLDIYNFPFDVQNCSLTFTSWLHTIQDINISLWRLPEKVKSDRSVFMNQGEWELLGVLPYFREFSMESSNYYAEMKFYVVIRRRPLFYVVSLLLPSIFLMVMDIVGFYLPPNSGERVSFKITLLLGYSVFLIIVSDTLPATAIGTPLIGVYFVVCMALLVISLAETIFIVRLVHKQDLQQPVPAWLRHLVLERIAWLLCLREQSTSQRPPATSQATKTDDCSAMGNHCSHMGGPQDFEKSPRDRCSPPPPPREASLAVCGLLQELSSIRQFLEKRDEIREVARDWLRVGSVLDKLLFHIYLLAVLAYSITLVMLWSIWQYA

[17] = target: T3, 5-hydroxytryptamine receptor 1A (Homo sapiens, UniProt P08908); experiment: Binding affinity to 5HT1A receptor
T3 sequence (P08908 whole entry): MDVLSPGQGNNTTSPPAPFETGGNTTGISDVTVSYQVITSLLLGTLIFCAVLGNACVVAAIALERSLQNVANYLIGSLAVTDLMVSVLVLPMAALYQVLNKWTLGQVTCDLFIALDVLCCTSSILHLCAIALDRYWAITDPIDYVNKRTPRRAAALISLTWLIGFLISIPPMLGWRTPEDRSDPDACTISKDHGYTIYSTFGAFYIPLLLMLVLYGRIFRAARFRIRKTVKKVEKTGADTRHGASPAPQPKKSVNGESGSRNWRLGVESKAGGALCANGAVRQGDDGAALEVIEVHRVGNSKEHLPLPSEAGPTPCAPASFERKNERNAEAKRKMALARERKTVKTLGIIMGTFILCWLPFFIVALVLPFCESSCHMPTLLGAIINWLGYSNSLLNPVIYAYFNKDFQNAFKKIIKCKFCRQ

[18] = target: 5-hydroxytryptamine receptor 6 (Homo sapiens) (UniProt P50406); experiment: Antagonist activity at human recombinant 5HT6 receptor expressed in CHO cells assessed as inhibition of 5HT-induced luciferase activity after 4 hrs by reporter gene assay; assay type: functional, cell-based
[19] = target: Voltage-gated inwardly rectifying potassium channel KCNH2 (Homo sapiens, UniProt Q12809); experiment: Displacement of [3H]astemizole from human ERG by microbeta scintillation counting
Chain of Voltage-gated inwardly rectifying potassium channel KCNH2 (Q12809 whole entry): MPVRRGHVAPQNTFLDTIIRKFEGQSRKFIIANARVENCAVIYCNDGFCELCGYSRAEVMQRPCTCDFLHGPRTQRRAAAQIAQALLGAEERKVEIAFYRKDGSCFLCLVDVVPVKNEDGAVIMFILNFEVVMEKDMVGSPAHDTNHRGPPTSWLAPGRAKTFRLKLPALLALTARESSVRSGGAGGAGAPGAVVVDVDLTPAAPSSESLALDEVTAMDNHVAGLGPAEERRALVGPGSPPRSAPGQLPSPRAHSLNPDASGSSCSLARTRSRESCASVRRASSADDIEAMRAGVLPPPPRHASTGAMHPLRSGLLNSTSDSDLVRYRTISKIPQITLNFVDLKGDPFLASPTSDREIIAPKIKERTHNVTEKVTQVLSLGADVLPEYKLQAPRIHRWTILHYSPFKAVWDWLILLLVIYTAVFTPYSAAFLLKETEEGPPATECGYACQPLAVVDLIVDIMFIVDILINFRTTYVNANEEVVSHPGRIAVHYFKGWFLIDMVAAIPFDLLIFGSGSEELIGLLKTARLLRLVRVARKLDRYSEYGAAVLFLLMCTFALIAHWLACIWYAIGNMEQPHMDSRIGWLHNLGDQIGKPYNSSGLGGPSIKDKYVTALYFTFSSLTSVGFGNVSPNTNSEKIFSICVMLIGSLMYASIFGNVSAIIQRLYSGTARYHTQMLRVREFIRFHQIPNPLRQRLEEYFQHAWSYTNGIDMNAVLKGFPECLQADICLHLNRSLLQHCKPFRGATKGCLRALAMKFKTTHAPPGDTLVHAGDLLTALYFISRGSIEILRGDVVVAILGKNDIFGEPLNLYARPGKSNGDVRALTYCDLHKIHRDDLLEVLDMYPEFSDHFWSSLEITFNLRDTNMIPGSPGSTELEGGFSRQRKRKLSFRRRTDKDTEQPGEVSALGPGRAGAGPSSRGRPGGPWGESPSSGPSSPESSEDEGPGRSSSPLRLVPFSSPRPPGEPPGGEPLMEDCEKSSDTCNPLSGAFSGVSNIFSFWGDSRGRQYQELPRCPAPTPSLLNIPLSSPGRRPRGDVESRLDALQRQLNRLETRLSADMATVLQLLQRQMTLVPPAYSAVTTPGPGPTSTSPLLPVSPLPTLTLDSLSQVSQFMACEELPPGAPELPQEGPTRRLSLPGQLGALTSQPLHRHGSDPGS

[20] = Apparent volume of distribution in Wistar rat at 10 mg/kg, iv; assay type: ADME, organism-based; parameters: dose 10 mg/kg, route intravenous; settings: in vivo, read-out: Vz
Rattus norvegicus [21] = experiment: Procognitive activity in Wistar rat assessed as reversal of time delay induced-memory deficit at 3 mg/kg, po by object recognition test; assay type: functional, organism-based; parameters: dose 3 mg/kg
[22] = Clearance in Wistar rat at 10 mg/kg, iv; assay type: ADME, organism-based; parameters: dose 10 mg/kg, route intravenous; settings: in vivo
[23] = Drug metabolism in human liver microsomes at 2.5 uM at 30 mins by LC-MS/MS analysis; assay type: ADME, Microsome; settings: read-out: Drug metabolism
[24] = target: T4, Alpha-1B adrenergic receptor (Homo sapiens, UniProt P35368); experiment: Binding affinity to adrenergic alpha1B receptor
T4 sequence (P35368 whole entry): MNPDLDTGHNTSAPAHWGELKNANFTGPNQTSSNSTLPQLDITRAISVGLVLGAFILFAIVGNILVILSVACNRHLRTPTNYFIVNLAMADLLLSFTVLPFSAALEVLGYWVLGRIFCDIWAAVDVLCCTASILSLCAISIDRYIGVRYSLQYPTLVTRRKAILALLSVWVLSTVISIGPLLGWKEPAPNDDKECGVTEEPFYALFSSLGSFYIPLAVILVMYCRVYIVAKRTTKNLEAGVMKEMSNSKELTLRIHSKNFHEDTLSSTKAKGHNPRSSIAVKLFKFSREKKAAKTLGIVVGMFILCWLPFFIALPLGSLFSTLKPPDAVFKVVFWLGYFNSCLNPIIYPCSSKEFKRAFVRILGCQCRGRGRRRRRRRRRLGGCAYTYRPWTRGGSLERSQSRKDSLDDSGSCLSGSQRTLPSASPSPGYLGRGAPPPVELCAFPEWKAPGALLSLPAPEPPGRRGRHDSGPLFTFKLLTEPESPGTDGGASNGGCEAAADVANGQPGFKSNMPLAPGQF

[25] = Oral bioavailability in fasted Wistar rat at 10 mg/kg; assay type: ADME, organism-based; settings: in vivo
D(2) dopamine receptor = D(2) dopamine receptor (Homo sapiens, UniProt P14416); experiment: Binding affinity to dopamine D2 receptor
Chain of D(2) dopamine receptor (P14416 whole entry): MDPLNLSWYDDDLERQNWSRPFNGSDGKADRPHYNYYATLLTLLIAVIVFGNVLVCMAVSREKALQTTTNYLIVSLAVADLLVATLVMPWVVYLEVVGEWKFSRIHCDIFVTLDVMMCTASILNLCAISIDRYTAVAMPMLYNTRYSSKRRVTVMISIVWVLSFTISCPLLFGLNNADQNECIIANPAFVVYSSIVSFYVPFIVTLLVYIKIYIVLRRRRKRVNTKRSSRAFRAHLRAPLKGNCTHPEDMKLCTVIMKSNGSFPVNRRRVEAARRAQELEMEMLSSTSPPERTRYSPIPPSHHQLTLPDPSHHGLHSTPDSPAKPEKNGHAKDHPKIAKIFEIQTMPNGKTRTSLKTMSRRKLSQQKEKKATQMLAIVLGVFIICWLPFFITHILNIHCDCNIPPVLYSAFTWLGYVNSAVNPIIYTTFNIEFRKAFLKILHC

Cytochrome P450 2D6 = Cytochrome P450 2D6 (Homo sapiens, UniProt P10635); experiment: Inhibition of CYP2D6 in human liver microsomes using dextromethorphan as substrate after 10 mins by LC-MS/MS analysis in presence of NADPH
Chain of Cytochrome P450 2D6 (P10635 whole entry): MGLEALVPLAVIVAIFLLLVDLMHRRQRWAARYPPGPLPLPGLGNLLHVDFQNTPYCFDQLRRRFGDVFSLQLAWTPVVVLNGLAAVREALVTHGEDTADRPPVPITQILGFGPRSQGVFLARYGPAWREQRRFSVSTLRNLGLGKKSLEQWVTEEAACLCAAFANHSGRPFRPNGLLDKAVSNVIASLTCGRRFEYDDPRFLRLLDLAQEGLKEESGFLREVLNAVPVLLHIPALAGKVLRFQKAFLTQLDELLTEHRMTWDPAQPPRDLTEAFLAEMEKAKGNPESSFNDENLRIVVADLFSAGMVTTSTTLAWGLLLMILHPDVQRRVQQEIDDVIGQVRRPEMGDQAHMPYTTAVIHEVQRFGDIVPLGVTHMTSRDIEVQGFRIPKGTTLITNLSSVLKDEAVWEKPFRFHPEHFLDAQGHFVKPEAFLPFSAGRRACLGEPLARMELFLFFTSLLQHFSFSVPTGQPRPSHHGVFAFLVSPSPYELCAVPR

[26] = target: 5-hydroxytryptamine receptor 2A (Homo sapiens, UniProt P28223); experiment: Binding affinity to 5HT2A receptor
Chain of 5-hydroxytryptamine receptor 2A (P28223 whole entry): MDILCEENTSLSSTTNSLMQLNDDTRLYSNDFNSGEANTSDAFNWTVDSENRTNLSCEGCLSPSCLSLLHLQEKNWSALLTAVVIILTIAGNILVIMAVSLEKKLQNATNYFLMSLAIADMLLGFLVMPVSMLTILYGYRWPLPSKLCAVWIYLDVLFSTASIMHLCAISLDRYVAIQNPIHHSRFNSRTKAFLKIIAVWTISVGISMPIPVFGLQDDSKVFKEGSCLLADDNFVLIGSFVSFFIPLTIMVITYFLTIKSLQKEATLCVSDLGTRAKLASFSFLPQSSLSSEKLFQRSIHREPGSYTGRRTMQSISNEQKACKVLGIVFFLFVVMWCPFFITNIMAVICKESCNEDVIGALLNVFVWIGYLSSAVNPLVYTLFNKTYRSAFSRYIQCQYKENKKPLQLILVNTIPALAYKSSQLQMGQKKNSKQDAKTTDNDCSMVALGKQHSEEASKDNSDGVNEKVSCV

Chain of 5-hydroxytryptamine receptor 4 (Q13639 whole entry): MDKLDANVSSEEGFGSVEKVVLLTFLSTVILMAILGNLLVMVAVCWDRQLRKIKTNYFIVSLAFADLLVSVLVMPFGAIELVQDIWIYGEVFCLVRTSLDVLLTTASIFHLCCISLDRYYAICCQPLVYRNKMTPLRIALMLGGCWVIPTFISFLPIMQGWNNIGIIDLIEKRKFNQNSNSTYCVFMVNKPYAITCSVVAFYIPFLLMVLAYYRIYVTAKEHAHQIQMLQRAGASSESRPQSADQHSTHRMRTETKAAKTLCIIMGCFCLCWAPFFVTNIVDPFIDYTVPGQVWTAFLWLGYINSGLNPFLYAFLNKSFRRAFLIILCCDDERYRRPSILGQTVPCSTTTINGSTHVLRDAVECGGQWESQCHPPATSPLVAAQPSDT
Chain of 5-hydroxytryptamine receptor 7 (P34969 whole entry): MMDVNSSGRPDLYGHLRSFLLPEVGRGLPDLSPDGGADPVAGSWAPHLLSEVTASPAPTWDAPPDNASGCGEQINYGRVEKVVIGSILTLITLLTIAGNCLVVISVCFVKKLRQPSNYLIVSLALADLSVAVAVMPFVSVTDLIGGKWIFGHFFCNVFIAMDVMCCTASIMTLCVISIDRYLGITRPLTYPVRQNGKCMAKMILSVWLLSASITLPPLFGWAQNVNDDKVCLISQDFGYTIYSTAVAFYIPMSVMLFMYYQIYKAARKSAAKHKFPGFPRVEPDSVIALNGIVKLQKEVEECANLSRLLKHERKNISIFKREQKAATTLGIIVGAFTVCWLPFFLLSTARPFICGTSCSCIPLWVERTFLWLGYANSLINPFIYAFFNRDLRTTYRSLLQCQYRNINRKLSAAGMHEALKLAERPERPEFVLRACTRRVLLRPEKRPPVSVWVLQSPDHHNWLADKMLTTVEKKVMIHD

SMILES: COc1ccc(S(=O)(=O)n2cc(C)c3cc(Cl)ccc32)cc1NC1CCN(C)CC1
- Ki [1]: 6370 nM
- EC50 [2]: > 10000 nM
- Cmax [3]: 296 ng/mL
- Kp at 1 h [4]: 3.8
- metabolised at 0.5 h, 2.5 µM [5]: 40%
- Imax [6]: 100%
- Ki [7]: 2900 nM
- IC50 (Cytochrome P450 3A4): 6460 nM
- AUC(0-t) at 24 h [8]: 2760 ng·h/mL
- Ki [9]: 3120 nM
- Ki [10]: 1940 nM
- half-life [11]: 2.2 h
- AUC(0-t) at 24 h [12]: 2090 ng·h/mL
- Activity (Rattus norvegicus [13]): Toxic
- Tmax [14]: 1.67 h
- Activity (Rattus norvegicus [15]): Active
- Ki (Histamine H1 receptor): 682 nM
- IC50 [16]: > 10000 nM
- EC50 [17]: > 1000 nM
- Kb [18]: 0.02 nM
- Ki [19]: 800 nM
- Vd [20]: 11 L/kg
- Activity (Rattus norvegicus [21]): Active
- clearance [22]: 59 mL/min/kg
- metabolised at 0.5 h, 2.5 µM [23]: 0%
- Ki [24]: 955 nM
- bioavailability [25]: 75%
- Ki (D(2) dopamine receptor): 303 nM
- IC50 (Cytochrome P450 2D6): 14700 nM
- Ki [26]: 536 nM

Source: ChEMBL document CHEMBL2176989, “Design, synthesis, and pharmacological evaluation of piperidin-4-yl amino aryl sulfonamides: novel, potent, selective, orally active, and brain penetrant 5-HT₆ receptor antagonists” (J Med Chem, 2012)
